Source: US8575135B2 (Gilead Sciences, Inc., priority 2011, dated 2013)
Read-outs that look alike come from different tables or passages of the source.

Key:
Test in all cases: microbe, parasite or virus in culture
Details in all cases: Hepatitis C virus
[1] = system: stable HCV 1a RLuc replicon cells (genotype 1a H77 replicon); type: cell-based
[2] = system: stable HCV 2a JFH-1 Rluc replicon cells (L31 present in NS5A); type: cell-based
[3] = system: NS5A chimeric genotype 1b Con1 replicon with genotype 3a S52 strain NS5A gene; type: cell-based, HCV
Method in brief: (§1)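 Con1 1b replicons carrying 3a S52 or 4a ED43 NS5A with Pi-RLuc reporter were transiently transfected into Huh-Lunet cells; 2b MD2b-1 NS5A (M31) in JFH-1 2a backbone with RLuc-Neo, transient or stable.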

[4] = system: NS5A chimeric genotype 2a JFH-1 replicon with genotype 2a J6 strain NS5A gene (M31 present); type: cell-based, HCV
[5] = system: NS5A chimeric genotype 2a JFH-1 replicon with genotype 2b MD2b-1 strain NS5A gene (M31 present); type: cell-based, HCV
Method in brief: as §1

[6] = system: NS5A chimeric genotype 1b Con1 replicon with genotype 4a ED43 strain NS5A gene; type: cell-based, HCV
[7] = system: 1a Pi-Rluc replicon with Q30R in genotype 1a NS5A; type: cell-based, HCV
Method in brief: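 Renilla luciferase replicon assay: 1a Pi-RLuc replicon carrying NS5A Q30R, transfected transiently into cured-51 (Huh-7-derived) cells.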

SMILES	EC50 ([1]; read-out: 1a)	EC50 ([1]; read-out: 1a (nM))	EC50 ([2]; read-out: 2a JFH)	EC50 ([2]; read-out: 2a JFH (nM))	EC50 ([3]; read-out: 3a)	EC50 ([3]; read-out: 3a (nM))	EC50 ([4]; read-out: 2a J6)	EC50 ([4]; read-out: 2a J6 (s) (nM))	EC50 ([4]; read-out: 2a Jb (t) (nM))	EC50 ([5]; read-out: 2b)	EC50 ([5]; read-out: 2b (s) (nM))	EC50 ([5]; read-out: 2b (t) (nM))	EC50 ([6]; read-out: 4a)	EC50 ([6]; read-out: 4a (t) (nM))	EC50 ([7]; read-out: 1a Q30R)	EC50 ([7]; read-out: 1a Q30R (nM))	EC50 ([6]; read-out: 4a (s) (nM))
COC[C@@H]1C[C@@H](c2nc3ccc4cc5c(cc4c3[nH]2)OCc2cc(-c3cnc([C@@H]4CCCN4C(=O)[C@@H](NC(=O)OC)C(C)C)[nH]3)ccc2-5)N(C(=O)[C@H](NC(=O)OC)c2ccccc2)C1 [Example MQ, methyl{(1R)-2-[(2S,4R)-2-(9-{2-[(2S)-1-{(2S)-2-[(methoxycarbonyl)amino]-3-methylbutanoyl}pyrrolidin-2-yl)-1H-imidazol-5-yl]-1,11-dihydroisochromeno[4′,3′:6,7]naphtho[1,2-d]imidazol-2-yl}-4-(methoxymethyl)pyrrolidin-1-yl]-2-oxo-phenylethyl}carbamate]	< 1 nM	0.008 nM	< 1 nM	0.004 nM	< 1 nM	0.016 nM	< 1 nM	0.095 nM	0.017 nM	< 1 nM	0.023 nM	0.009 nM	< 1 nM	0.011 nM	< 1 nM	0.023 nM	–
COC[C@H]1C[C@@H](c2nc3c([nH]2)-c2cc4c(cc2CC3)-c2ccc(-c3cnc([C@@H]5CCCN5C(=O)[C@@H](NC(=O)OC)C(C)C)[nH]3)cc2CO4)N(C(=O)[C@H](NC(=O)OC)c2ccccc2)C1 [Example MR, methyl{(1R)-2-[(2S,4S)-2-(9-{2-[(2S)-1-{(2S)-2-[(methoxycarbonyl)amino]-3-methylbutanoyl}pyrrolidin-2-yl)-1H-imidazol-5-yl]-1,11-dihydroisochromeno[4′,3′:6,7]-4,5-dihydro-naphtho[1,2-d]imidazol-2-yl}-(methoxymethyl)pyrrolidin-1-yl]-2-oxo-1-phenylethyl}carbamate]	< 1 nM	0.028 nM	< 1 nM	0.017 nM	< 1 nM	0.078 nM	< 1 nM	0.176 nM	0.079 nM	< 1 nM	0.053 nM	0.039 nM	< 1 nM	0.045 nM	< 1 nM	0.128 nM	–
COC[C@H]1C[C@@H](c2ncc(-c3ccc4c(c3)COc3cc5c(ccc6nc([C@@H]7CCCN7C(=O)[C@@H](NC(=O)OC)C(C)C)[nH]c65)cc3-4)[nH]2)N(C(=O)[C@H](NC(=O)OC)c2ccccc2)C1 [Example MU, methyl{(1R)-2-[(2S,4S)-2-(5-{2-[(2S)-1-{(2S)-2-[(methoxycarbonyl)amino]-3-methylbutanoyl}-pyrrolidin-2-yl]-1,11-dihydroisochromeno[4′,3′:6,7]naphtho[1,2-d]imidazol-9-yl}-1H-imidazol-2-yl)-4-(methoxymethyl)pyrrolidin-1-yl]-2-oxo-1-phenylethyl}carbamate]	< 1 nM	0.008 nM	< 1 nM	0.004 nM	< 1 nM	0.017 nM	< 1 nM	0.046 nM	0.013 nM	< 1 nM	0.025 nM	0.009 nM	< 1 nM	0.011 nM	< 1 nM	0.023 nM	–
COC(=O)N[C@H](C(=O)N1CCC[C@H]1c1ncc(-c2ccc3c(c2)COc2cc4c(ccc5nc([C@@H]6C[C@H](C)CN6C(=O)[C@H](NC(=O)OC)c6ccccc6)[nH]c54)cc2-3)[nH]1)C(C)C [Example MY, Methyl {2-[2-{9-[2-(1-{2-[(methoxycarbonyl)amino]-3-methylbutanoyl}pyrrolidin-2-yl)-1H-imidazol-5-yl]-1,11-dihydroisochromeno[4′,3′:6,7]naphtho[1,2-d]imidazol-2-yl}-4-(methyl)pyrrolidin-1-yl]-2-oxo-1-phenylethyl}carbamate]	< 1 nM	0.016 nM	< 1 nM	0.005 nM	< 1 nM	0.01 nM	< 1 nM	0.165 nM	0.047 nM	< 1 nM	0.047 nM	0.016 nM	< 1 nM	0.008 nM	< 1 nM	0.024 nM	0.02 nM
